Assay results reported in patent publication US20210269426A1, “MICROBIOCIDAL OXADIAZOLE DERIVATIVES” (SYNGENTA CROP PROTECTION AG, priority 2018, published 2021).

Experiments:
[1] = tested on: Puccinia recondita f. Sp. Tritici; assay: Puccinia recondita f. sp. tritici / wheat / leaf disc preventative (brown rust); format: in vivo; settings: foliar, 200 ppm in the applied formulation, wheat leaf segments cv. Kanzler, inoculated 1 day after application, assessed 7 to 9 days after application, read-out: disease control
Protocol: Leaf disks or leaf segments of various plant species are cut from plants grown in a greenhouse. The cut leaf disks or segments are placed in multiwell plates (24-well format) onto water agar. The leaf disks are sprayed with a test solution before (preventative) or after (curative) inoculation. Compounds to be tested are prepared as DMSO solutions (max. 10 mg/ml) which are diluted to the appropriate concentration with 0.025% Tween20 just before spraying. The inoculated leaf disks or segments are incubated under defined conditions (temperature, relative humidity, light, etc.) according to the respective test system. A single evaluation of disease level is carried out 3 to 14 days after inoculation, depending on the pathosystem. Percent disease control relative to the untreated check leaf disks or segments is then calculated. Wheat leaf segments cv. Kanzler were placed on agar in multiwell plates (24-well format) and sprayed with the formulated test compound diluted in water. The leaf disks were inoculated with a spore suspension of the fungus 1 day after application. The inoculated leaf segments were incubated at 19° C. and 75% relative humidity (rh) under a light regime of 12 hours light/12 hours darkness in a climate cabinet and the activity of a compound was assessed as percent disease control compared to untreated when an appropriate level of disease damage appears in untreated check leaf segments (7 to 9 days after application). The following compounds at 200 ppm in the applied formulation give at least 80% disease control in this test when compared to untreated control leaf disks under the same conditions, which show extensive disease development.

[2] = tested on: Glomerella lagenarium (Colletotrichum lagenarium); assay: Glomerella lagenarium (Colletotrichum lagenarium) liquid culture / cucumber / preventative (anthracnose); format: cell-based; settings: Colletotrichum orbiculare; 20 ppm in the applied formulation; liquid culture in PDB, 24° C., 3 to 4 days after application; read-out: disease control (inhibition of growth, photometric)
Protocol: Mycelia fragments or conidia suspensions of a fungus prepared either freshly from liquid cultures of the fungus or from cryogenic storage, are directly mixed into nutrient broth. DMSO solutions of the test compound (max. 10 mg/ml) are diluted with 0.025% Tween20 by a factor of 50 and 10 μl of this solution is pipetted into a microtiter plate (96-well format). The nutrient broth containing the fungal spores/mycelia fragments is then added to give an end concentration of the tested compound. The test plates are incubated in the dark at 24° C. and 96% relative humidity. The inhibition of fungal growth is determined photometrically after 2 to 7 days, depending on the pathosystem, and percent antifungal activity relative to the untreated check is calculated.
Conidia of the fungus from cryogenic storage are directly mixed into nutrient broth (PDB—potato dextrose broth). After placing a (DMSO) solution of test compound into a microtiter plate (96-well format), the nutrient broth containing the fungal spores is added. The test plates are incubated at 24° C. and the inhibition of growth is measured photometrically 3 to 4 days after application.
The following compounds at 20 ppm in the applied formulation give at least 80% disease control in this test when compared to untreated control under the same conditions, which show extensive disease development.

Structure (SMILES): CCNC(=O)C(=O)c1ccc(-c2noc(C(F)(F)F)n2)s1 [Compound 1.6, N-ethyl-2-oxo-2-[5-[5-(trifluoromethyl)-1,2,4-oxadiazol-3-yl]-2-thienyl]acetamide]
- pest or weed control at 200 ppm [1]: ≥ 80%
- melting point: 142.7 to 144.6 °C
- inhibition at 20 ppm [2]: ≥ 80%

Structure (SMILES): CONC(=O)C(=O)c1ccc(-c2noc(C(F)(F)F)n2)s1 [Compound 1.5, N-methoxy-2-oxo-2-[5-[5-(trifluoromethyl)-1,2,4-oxadiazol-3-yl]-2-thienyl]acetamide]
- pest or weed control at 200 ppm [1]: ≥ 80%
- melting point: 109.7 to 112.1 °C
- inhibition at 20 ppm [2]: ≥ 80%

Structure (SMILES): COCCNC(=O)C(=O)c1ccc(-c2noc(C(F)(F)F)n2)s1 [Compound 1.2, N-(2-methoxyethyl)-2-oxo-2-[5-[5-(trifluoromethyl)-1,2,4-oxadiazol-3-yl]-2-thienyl]acetamide]
- pest or weed control at 200 ppm [1]: ≥ 80%
- melting point: 106 to 107.1 °C
- inhibition at 20 ppm [2]: ≥ 80%

Structure (SMILES): CON(C)C(=O)C(=O)c1ccc(-c2noc(C(F)(F)F)n2)s1 [Compound 1.4, N-methoxy-N-methyl-2-oxo-2-[5-[5-(trifluoromethyl)-1,2,4-oxadiazol-3-yl]-2-thienyl]acetamide]
- pest or weed control at 200 ppm [1]: ≥ 80%
- inhibition at 20 ppm [2]: ≥ 80%

Structure (SMILES): O=C(NC1CC1)C(=O)c1ccc(-c2noc(C(F)(F)F)n2)s1 [Compound 1.8, N-cyclopropyl-2-oxo-2-[5-[5-(trifluoromethyl)-1,2,4-oxadiazol-3-yl]-2-thienyl]acetamide]
- pest or weed control at 200 ppm [1]: ≥ 80%
- melting point: 122.1 to 126.7 °C
- inhibition at 20 ppm [2]: ≥ 80%

Structure (SMILES): CN(C)C(=O)C(=O)c1ccc(-c2noc(C(F)(F)F)n2)s1 [Compound 1.3, N,N-dimethyl-2-oxo-2-[5-[5-(trifluoromethyl)-1,2,4-oxadiazol-3-yl]-2-thienyl]acetamide]
- pest or weed control at 200 ppm [1]: ≥ 80%
- melting point: 88.4 to 89.4 °C
- inhibition at 20 ppm [2]: ≥ 80%

Structure (SMILES): CNC(=O)C(=O)c1ccc(-c2noc(C(F)(F)F)n2)s1 [Compound 1.7, N-methyl-2-oxo-2-[5-[5-(trifluoromethyl)-1,2,4-oxadiazol-3-yl]-2-thienyl]acetamide]
- pest or weed control at 200 ppm [1]: ≥ 80%
- melting point: 96.2 to 98.7 °C
- inhibition at 20 ppm [2]: ≥ 80%

Structure (SMILES): O=C(NCc1ccccc1Cl)C(=O)c1ccc(-c2noc(C(F)(F)F)n2)s1 [Compound 1.1, N-[(2-chlorophenyl)methyl]-2-oxo-2-[5-[5-(trifluoromethyl)-1,2,4-oxadiazol-3-yl]-2-thienyl]acetamide]
- pest or weed control at 200 ppm [1]: ≥ 80%
- melting point: 94 to 95.2 °C
- inhibition at 20 ppm [2]: ≥ 80%
